Measurements published in patent US8536168B2 (Novartis AG, priority 2007, dated 2013).
Read-outs that look alike come from different tables or passages of the source.

What was measured:
[1] = test system: Gli-luciferase activity; test: Reporter gene assay (RGA) in TMHh12 cells, antagonism of Gli-luciferase activity in the presence of a Smo agonist; assay type: cell-based
Method: Activity of the compounds was evaluated using a reporter gene assay (RGA) in TMHh12 cells.

[2] = target: mouse Smoothened receptor (Mus musculus, UniProt P56726); test: Smo binding assay, displacement of radio-labeled smoothened agonist, filter binding format (mouse); conditions: displacement of small molecule agonist of Smoothened, read-out: Mouse Smo bdg., IC50
Text: A Smo binding assay was developed using radio-labeled smoothened agonist for compound competition.

[3] = target: human Smoothened receptor (Homo sapiens, UniProt Q99835); test: Smo binding assay, displacement of radio-labeled smoothened agonist, filter binding format (human); conditions: displacement of small molecule agonist of Smoothened, read-out: Human Smo bdg., IC50
Text: A Smo binding assay was developed using radio-labeled smoothened agonist for compound competition. Table 9 lists the IC50 for displacement of a small molecule agonist of Smoothened determined in a filter binding format for the mouse and human Smoothened receptor.

[4] = 25 nM small molecule Smo agonist, read-out: RGA (25 nM Smo agonist) IC50
[5] = read-out: RGA (1 nM Smo agonist) IC50, 1 nM small molecule Smo agonist

human Smoothened receptor, sequence (Q99835 28-787): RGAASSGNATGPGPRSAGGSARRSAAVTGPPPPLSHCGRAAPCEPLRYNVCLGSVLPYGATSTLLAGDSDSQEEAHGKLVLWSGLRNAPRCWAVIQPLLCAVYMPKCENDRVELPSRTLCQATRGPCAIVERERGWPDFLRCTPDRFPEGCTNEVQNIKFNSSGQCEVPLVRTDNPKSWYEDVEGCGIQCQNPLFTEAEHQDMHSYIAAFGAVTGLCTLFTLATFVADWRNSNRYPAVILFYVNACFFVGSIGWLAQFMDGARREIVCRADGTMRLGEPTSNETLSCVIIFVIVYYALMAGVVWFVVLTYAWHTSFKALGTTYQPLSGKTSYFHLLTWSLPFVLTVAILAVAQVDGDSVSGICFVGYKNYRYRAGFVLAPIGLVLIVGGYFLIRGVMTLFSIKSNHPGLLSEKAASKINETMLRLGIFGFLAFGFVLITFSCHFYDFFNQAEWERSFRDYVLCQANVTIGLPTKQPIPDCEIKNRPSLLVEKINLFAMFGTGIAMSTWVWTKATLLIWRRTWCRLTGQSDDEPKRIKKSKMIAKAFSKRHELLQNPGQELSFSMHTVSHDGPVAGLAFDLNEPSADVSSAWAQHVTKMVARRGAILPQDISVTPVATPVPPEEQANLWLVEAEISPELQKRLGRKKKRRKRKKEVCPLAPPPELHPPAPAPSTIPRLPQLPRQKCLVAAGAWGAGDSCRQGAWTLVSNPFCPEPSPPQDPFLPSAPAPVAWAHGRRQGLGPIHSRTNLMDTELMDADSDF
mouse Smoothened receptor, sequence (P56726 33-793): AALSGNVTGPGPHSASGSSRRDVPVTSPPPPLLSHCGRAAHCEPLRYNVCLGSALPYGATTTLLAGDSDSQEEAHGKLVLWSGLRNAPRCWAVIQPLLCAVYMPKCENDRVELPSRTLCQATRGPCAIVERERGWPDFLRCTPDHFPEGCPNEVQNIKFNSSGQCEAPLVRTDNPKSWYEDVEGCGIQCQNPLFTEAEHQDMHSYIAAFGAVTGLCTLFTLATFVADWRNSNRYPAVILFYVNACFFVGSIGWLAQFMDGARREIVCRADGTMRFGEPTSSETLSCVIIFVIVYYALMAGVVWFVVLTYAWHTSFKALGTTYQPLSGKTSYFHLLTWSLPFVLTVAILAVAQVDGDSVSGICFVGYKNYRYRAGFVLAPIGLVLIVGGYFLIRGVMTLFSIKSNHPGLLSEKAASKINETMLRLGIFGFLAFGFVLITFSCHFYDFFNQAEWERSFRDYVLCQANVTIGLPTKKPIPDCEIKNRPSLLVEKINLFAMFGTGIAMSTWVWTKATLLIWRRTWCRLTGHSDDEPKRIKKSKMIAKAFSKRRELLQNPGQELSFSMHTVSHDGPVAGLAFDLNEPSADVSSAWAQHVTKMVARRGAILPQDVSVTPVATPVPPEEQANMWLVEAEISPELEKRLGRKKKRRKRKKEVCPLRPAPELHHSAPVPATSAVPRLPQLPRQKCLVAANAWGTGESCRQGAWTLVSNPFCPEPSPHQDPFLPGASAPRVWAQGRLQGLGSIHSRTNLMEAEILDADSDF

Row | SMILES | IC50 [1, 4] | IC50 [1, 5] | IC50 [2] | IC50 [3]
1 | N#Cc1cccc(C(=O)N2CCC(c3cn(Cc4ccccc4)c4ccccc34)CC2)c1 [Example 103] | 1 to 10 µM | 1 to 10 µM | 1 to 10 µM | 1 to 10 µM
2 | Cc1cc(N2CCN(c3ccc(C(F)(F)F)cn3)CC2)nnc1Cc1ccccc1 [Example 89] | – | 0.1 to 1 µM | < 0.1 µM | < 0.1 µM
3 | N#Cc1ccc(N2CCN(c3nnc(Cc4cccc(C#N)c4)c4ccccc34)CC2)nc1 [Example 65] | 1 to 10 µM | 0.1 to 1 µM | 0.1 to 1 µM | 0.1 to 1 µM
4 | CC(C)(C)OC(=O)NC1CN(C(=O)c2ccc(N3CCN(c4nnc(Cc5ccccc5)c5ccccc45)CC3)nc2)C1 [Example 54v] | 1 to 10 µM | 0.1 to 1 µM | 0.1 to 1 µM | 0.1 to 1 µM
5 | O=C(c1cccc(F)c1)N1CCC(c2cn(Cc3ccc(F)cc3)c3ccccc23)CC1 [Example 101] | 10 to 40 µM | 0.1 to 1 µM | 0.1 to 1 µM | 0.1 to 1 µM
6 | N#Cc1cccc(C(=O)N2CCC(c3cn(Cc4ccc(F)cc4)c4ccccc34)CC2)c1 [Example 94, 3-{4-[1-(4-Fluoro-benzyl)-1H-indol-3-yl]-piperidine-1-carbonyl}-benzonitrile] | 1 to 10 µM | 0.1 to 1 µM | 0.1 to 1 µM | 0.1 to 1 µM
7 | N#Cc1ccc(N2CCN(c3ncc(Cc4ccccc4)c4ccccc34)CC2)nc1 [Example 83, 6-[4-(4-Benzyl-isoquinolin-1-yl)-piperazin-1-yl]-nicotinonitrile] | 0.1 to 1 µM | 0.1 to 1 µM | 1 to 10 µM | 1 to 10 µM
8 | O=C1CN(c2nnc(Cc3ccccc3)c3ccccc23)CCN1c1ccccc1 [Example 108] | 1 to 10 µM | 0.1 to 1 µM | 0.1 to 1 µM | 0.1 to 1 µM
9 | N#Cc1ccc(N2CCN(c3cnc(Cc4cccc(C(F)(F)F)c4)c4ccccc34)CC2)nc1 [Example 82] | 10 to 40 µM | 1 to 10 µM | 1 to 10 µM | 1 to 10 µM
10 | NCc1ccc(C2CCN(c3nnc(Cc4ccccc4)c4ccccc34)CC2)cc1 [Example 125, 4-[1-(4-Benzyl-phthalazine-1-yl)-piperidine-4-yl]-benzylamine] | 1 to 10 µM | 0.1 to 1 µM | 0.1 to 1 µM | 1 to 10 µM
11 | COc1ccc(Cc2nnc(N3CCN(c4ccc(C#N)cn4)CC3)c3ccccc23)cc1OC [Example 58] | – | 1 to 10 µM | 1 to 10 µM | 1 to 10 µM
12 | N#Cc1ccc(N2CCN(c3nnc(CCc4ccccc4)c4ccccc34)CC2)nc1 [Example 61] | 1 to 10 µM | 0.1 to 1 µM | < 0.1 µM | 0.1 to 1 µM
13 | CCOC(=O)c1ccc(N2CCN(c3nnc(CN4CCOCC4)c4ccccc34)CC2)nc1 [Example 203, 6-[4-(4-Morpholin-4-ylmethyl-phthalazin-1-yl)-piperazin-1-yl]-nicotinic acid ethyl ester] | 1 to 10 µM | 0.1 to 1 µM | 0.1 to 1 µM | 0.1 to 1 µM
14 | CC(C)(O)c1ccc(N2CCN(c3nnc(Cc4ccc(F)cc4)c4ccccc34)CC2)nc1 [Example 191, 2-(6-{4-[4-(4-Fluoro-benzyl)-phthalazin-1-yl]-piperazin-1-yl}-pyridin-3-yl)-propan-2-ol] | < 0.1 µM | < 0.1 µM | < 0.1 µM | < 0.1 µM
15 | FC(F)(F)c1ccc(N2CCN(c3nnc(Cc4ccccc4)c4[nH]cnc34)CC2)nc1 [Example 247, 7-Benzyl-4-[4-(5-trifluoromethyl-pyridin-2-yl)-piperazin-1-yl]-1H-imidazo[4,5-d]pyridazine] | 1 to 10 µM | 1 to 10 µM | 0.1 to 1 µM | 0.1 to 1 µM
16 | CC(C)(O)c1cnc(N2CCN(c3nnc(Cc4ccccc4)c4ccccc34)CC2)cn1 [Example 150] | < 0.1 µM | < 0.1 µM | < 0.1 µM | < 0.1 µM
17 | CCOC(=O)c1ccc(N2CCN(c3nnc(Cc4ccccc4)c4ccccc34)C[C@H]2C)nc1 [Example 144, 6-[(R)-4-(4-Benzyl-phthalazin-1-yl)-2-methyl-piperazin-1-yl]-nicotinic acid ethyl ester] | 0.1 to 1 µM | < 0.1 µM | < 0.1 µM | < 0.1 µM
18 | CC(C)(O)CNC(=O)c1ccc(N2CCN(c3nnc(Cc4ccccc4)c4ccccc34)CC2)nc1 [Example 54u] | 0.1 to 1 µM | < 0.1 µM | < 0.1 µM | 0.1 to 1 µM
19 | N#Cc1cnc(N2CCN(c3nnc(Cc4ccccc4)c4ccccc34)CC2)nc1 [Example 39, 2-[4-(4-Benzyl-phthalazin-1-yl)-piperazin-1-yl]-pyrimidine-5-carbonitrile] | 0.1 to 1 µM | < 0.1 µM | 0.1 to 1 µM | 0.1 to 1 µM

The remaining lines, values ahead:

Row | IC50 [1, 4] | IC50 [1, 5] | IC50 [2] | IC50 [3] | SMILES
20 | 0.1 to 1 µM | < 0.1 µM | < 0.1 µM | 0.1 to 1 µM | CN(CCCO)C(=O)c1ccc(N2CCN(c3nnc(Cc4ccccc4)c4ccccc34)CC2)nc1 [Example 54t]
21 | 1 to 10 µM | < 0.1 µM | 0.1 to 1 µM | 0.1 to 1 µM | Cc1cc(Cc2ccccc2)nnc1N1CCN(c2ccc(C(F)(F)F)cn2)CC1 [Example 88]
22 | 1 to 10 µM | < 0.1 µM | 10 to 40 µM | 1 to 10 µM | FC(F)(F)c1ccc(N2CCN(c3nnc(Cc4ccccc4)c4ccoc34)CC2)nc1 [Example 246, 4-Benzyl-7-[4-(5-trifluoromethyl-pyridin-2-yl)-piperazin-1-yl]-furo[2,3-d]pyridazine]
23 | 0.1 to 1 µM | < 0.1 µM | 0.1 to 1 µM | 0.1 to 1 µM | CN(C)C(=O)OCc1ccc(N2CCN(c3nnc(Cc4ccccc4)c4ccccc34)CC2)nc1 [Example 160, Dimethyl-carbamic acid 6-[4-(4-benzyl-phthalazin-1-yl)-piperazin-1-yl]-pyridin-3-ylmethyl ester]
24 | 0.1 to 1 µM | < 0.1 µM | < 0.1 µM | < 0.1 µM | CN(CCO)C(=O)c1ccc(N2CCN(c3nnc(Cc4ccc(Cl)c(Cl)c4)c4ccccc34)CC2)nc1 [Example 201]
25 | 0.1 to 1 µM | < 0.1 µM | 0.1 to 1 µM | 0.1 to 1 µM | CN(CCO)C(=O)c1cnc(N2CCN(c3nnc(Cc4ccccc4)c4ccccc34)CC2)nc1 [Example 54cc]
26 | 0.1 to 1 µM | < 0.1 µM | 0.1 to 1 µM | 0.1 to 1 µM | CN(C)C(=O)Nc1ccc(N2CCN(c3nnc(Cc4ccccc4)c4ccccc34)CC2)nc1 [Example 238, 3-{6-[4-(4-Benzyl-phthalazin-1-yl)-piperazin-1-yl]-pyridin-3-yl}-1,1-dimethyl-urea]
27 | 1 to 10 µM | < 0.1 µM | 0.1 to 1 µM | 0.1 to 1 µM | Cc1cc(Cc2ccc(F)cc2)nnc1N1CCN(c2ccc(C#N)cn2)CC1 [Example 84]
28 | 0.1 to 1 µM | < 0.1 µM | 0.1 to 1 µM | 0.1 to 1 µM | c1ccc(Cc2nnc(N3CCN(c4ccc(CNC5CCOCC5)cn4)CC3)c3ccccc23)cc1 [Example 225]
29 | 0.1 to 1 µM | < 0.1 µM | 0.1 to 1 µM | 0.1 to 1 µM | O=C(c1ccc(N2CCN(c3nnc(Cc4ccccc4)c4ccccc34)CC2)nc1)N1CC(O)C1 [Example 54z]
30 | < 0.1 µM | < 0.1 µM | < 0.1 µM | < 0.1 µM | C[C@H]1CN(c2ccc(C(C)(C)O)cn2)CCN1c1nnc(Cc2ccccc2Cl)c2ccccc12 [Example 196]
31 | < 0.1 µM | < 0.1 µM | < 0.1 µM | < 0.1 µM | CC(C)c1cnc(N2CCN(c3nnc(Cc4ccccc4)c4ccccc34)CC2)cn1 [Example 165, 4-(4-Benzyl-phthalazin-1-yl)-5′-isopropyl-3,4,5,6-tetrahydro-2H-[1,2′]bipyrazinyl]
32 | < 0.1 µM | < 0.1 µM | < 0.1 µM | < 0.1 µM | C[C@H]1CN(c2ccc(C(C)(C)O)cn2)CCN1c1nnc(Cc2ccc(F)cc2F)c2ccccc12 [Example 195]
33 | < 0.1 µM | < 0.1 µM | < 0.1 µM | < 0.1 µM | CC(C)(O)c1ccc(N2CCN(c3nnc(Cc4ccccc4)c4ccccc34)CC2)nc1 [Example 54a, 2-{6-[4-(4-Benzyl-phthalazin-1-yl)-piperazin-1-yl]-pyridin-3-yl}-propan-2-ol]
34 | 0.1 to 1 µM | < 0.1 µM | < 0.1 µM | < 0.1 µM | CC(O)(CO)c1ccc(N2CCN(c3nnc(Cc4ccccc4)c4ccccc34)CC2)nc1 (stereo not shown) [Example 167, 2-{6-[4-(4-Benzyl-phthalazin-1-yl)-piperazin-1-yl]-pyridin-3-yl}-propane-1,2-diol]
35 | 0.1 to 1 µM | < 0.1 µM | < 0.1 µM | < 0.1 µM | COC(=O)c1cnc(N2CCN(c3nnc(Cc4ccccc4)c4ccccc34)CC2)cc1C(F)(F)F [Example 136]
36 | 0.1 to 1 µM | < 0.1 µM | < 0.1 µM | < 0.1 µM | C[C@H]1CN(c2ccc(C#N)cn2)CCN1c1nnc(Cc2ccccc2)c2ccccc12 [Example 117]
37 | 0.1 to 1 µM | < 0.1 µM | < 0.1 µM | < 0.1 µM | N#Cc1ccc(Cc2nnc(N3CCN(c4ccc(C#N)cn4)CC3)c3ccccc23)cc1 [Example 57]
38 | < 0.1 µM | < 0.1 µM | < 0.1 µM | < 0.1 µM | c1ccc(Cc2nnc(N3CCN(c4ccc(CN5CCOCC5)cn4)CC3)c3ccccc23)cc1 [Example 222, 1-Benzyl-4-[4-(5-morpholin-4-ylmethyl-pyridin-2-yl)-piperazin-1-yl]-phthalazine]
39 | 0.1 to 1 µM | < 0.1 µM | 0.1 to 1 µM | 0.1 to 1 µM | N#Cc1ccc(Cn2cc(C3CCN(c4ccc(C(F)(F)F)cn4)CC3)c3ccccc32)cc1 [Example 96]
